# Source: US9981959B2, “Thiazolyl and oxazolyl urea, thiourea, guanidine and cyanoguanidine compounds as TrkA kinase inhibitors” (Array BioPharma Inc., priority 2012, dated 2018)
# Experiments:
# Test in all cases: KinaseProfiler off-target kinase profiling
# Type in all cases: biochemical
# Details in all cases: 10 μM, ATP near Km
# TrkA = TrkA (Homo sapiens, UniProt P04629); set-up: purchased Millipore, Inc. (KinaseProfiler service)
# Description: A representative compound of the invention (Example 2) was tested for off-target kinase activity at a concentration of 10 μM by Millipore, Inc. in their KinaseProfiler™ service against all the kinases available in their full kinase panel. The compound was run in duplicate at a concentration of ATP near the Km for each individual kinase according to Millipore's specifications.
# TrkB = biological target: T1, TrkB (Homo sapiens, UniProt Q16620)
# T1 construct: purchased Millipore, Inc. (KinaseProfiler service)
# In short: (§1)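 The kinase was incubated with 10 μM compound and ATP near its Km. Two replicates were run, and their mean activity is given as percent of control.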
# CDK2/cyclinA = biological target: T2, CDK2/cyclinA (Homo sapiens, UniProt P24941)
# T2 construct: purchased Millipore (KinaseProfiler service)
# In short: as §1
# CLK3 = biological target: T3, CLK3 (Homo sapiens, UniProt P49761)
# T3 construct: purchased Millipore, Inc. (KinaseProfiler service)
# In short: as §1
# Rse = biological target: T4, Rse (Homo sapiens, UniProt Q06418)
# T4 construct: purchased Millipore, Inc. (KinaseProfiler service)
# In short: as §1
# EphA3 = biological target: T5, EphA3 (Homo sapiens, UniProt P29320)
# T5 construct: purchased Millipore, Inc. (KinaseProfiler service)
# In short: as §1
# GRK7 = biological target: T6, GRK7 (Homo sapiens, UniProt Q8WTQ7)
# T6 construct: purchased Millipore, Inc. (KinaseProfiler service)
# In short: as §1
# ERK1 = biological target: T7, ERK1 (Homo sapiens, UniProt P27361)
# T7 construct: purchased Millipore, Inc. (KinaseProfiler service)
# In short: as §1
# ALK = biological target: T8, ALK (Homo sapiens, UniProt Q9UM73)
# T8 construct: purchased Millipore (KinaseProfiler service)
# In short: as §1
# MKNK2 = biological target: T9, MKNK2 (Homo sapiens, UniProt Q9HBH9)
# T9 construct: purchased Millipore, Inc. (KinaseProfiler service)
# In short: as §1
# IGF-1R Activated = biological target: T10, IGF-1R Activated (Homo sapiens, UniProt P08069)
# T10 construct: purchased Millipore, Inc. (KinaseProfiler service)
# In short: as §1
# PAK6 = biological target: T11, PAK6 (Homo sapiens, UniProt Q9NQU5)
# T11 construct: purchased Millipore, Inc. (KinaseProfiler service)
# T11 sequence (Q9NQU5 whole entry): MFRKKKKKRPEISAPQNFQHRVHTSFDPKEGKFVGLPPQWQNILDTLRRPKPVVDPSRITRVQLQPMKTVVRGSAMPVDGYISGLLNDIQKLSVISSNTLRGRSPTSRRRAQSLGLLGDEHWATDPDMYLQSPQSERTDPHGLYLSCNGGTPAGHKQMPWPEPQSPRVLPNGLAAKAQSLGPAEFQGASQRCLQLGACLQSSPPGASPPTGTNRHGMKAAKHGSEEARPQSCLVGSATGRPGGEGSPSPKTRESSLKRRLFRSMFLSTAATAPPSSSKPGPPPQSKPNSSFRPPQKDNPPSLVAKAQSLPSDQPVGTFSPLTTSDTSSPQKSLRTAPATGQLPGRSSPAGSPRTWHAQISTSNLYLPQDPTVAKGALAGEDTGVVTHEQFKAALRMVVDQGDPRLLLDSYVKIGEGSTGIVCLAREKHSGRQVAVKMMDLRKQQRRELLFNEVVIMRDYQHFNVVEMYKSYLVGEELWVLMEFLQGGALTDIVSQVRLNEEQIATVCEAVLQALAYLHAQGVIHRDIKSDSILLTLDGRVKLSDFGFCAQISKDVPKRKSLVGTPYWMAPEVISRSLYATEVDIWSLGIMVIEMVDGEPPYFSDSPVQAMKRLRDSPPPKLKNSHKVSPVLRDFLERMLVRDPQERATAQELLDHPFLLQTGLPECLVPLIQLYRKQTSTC
# In short: as §1
# CSK = biological target: T12, CSK (Homo sapiens, UniProt P41240)
# T12 construct: purchased Millipore, Inc. (KinaseProfiler service)
# T12 sequence (P41240 whole entry): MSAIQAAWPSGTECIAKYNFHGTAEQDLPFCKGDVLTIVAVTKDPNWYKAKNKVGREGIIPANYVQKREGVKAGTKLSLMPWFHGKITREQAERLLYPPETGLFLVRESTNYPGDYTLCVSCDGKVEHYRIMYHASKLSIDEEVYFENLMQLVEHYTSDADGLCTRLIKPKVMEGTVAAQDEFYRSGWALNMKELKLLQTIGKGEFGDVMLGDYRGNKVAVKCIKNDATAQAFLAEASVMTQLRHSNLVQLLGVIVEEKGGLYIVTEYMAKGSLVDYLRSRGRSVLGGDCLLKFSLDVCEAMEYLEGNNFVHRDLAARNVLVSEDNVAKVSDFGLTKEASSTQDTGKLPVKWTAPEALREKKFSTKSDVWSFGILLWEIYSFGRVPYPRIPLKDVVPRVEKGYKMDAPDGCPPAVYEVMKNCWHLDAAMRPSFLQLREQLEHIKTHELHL
# In short: as §1
# CHK2 = biological target: T13, CHK2 (Homo sapiens, UniProt O96017)
# T13 construct: purchased Millipore, Inc. (KinaseProfiler service)
# T13 sequence (O96017 whole entry): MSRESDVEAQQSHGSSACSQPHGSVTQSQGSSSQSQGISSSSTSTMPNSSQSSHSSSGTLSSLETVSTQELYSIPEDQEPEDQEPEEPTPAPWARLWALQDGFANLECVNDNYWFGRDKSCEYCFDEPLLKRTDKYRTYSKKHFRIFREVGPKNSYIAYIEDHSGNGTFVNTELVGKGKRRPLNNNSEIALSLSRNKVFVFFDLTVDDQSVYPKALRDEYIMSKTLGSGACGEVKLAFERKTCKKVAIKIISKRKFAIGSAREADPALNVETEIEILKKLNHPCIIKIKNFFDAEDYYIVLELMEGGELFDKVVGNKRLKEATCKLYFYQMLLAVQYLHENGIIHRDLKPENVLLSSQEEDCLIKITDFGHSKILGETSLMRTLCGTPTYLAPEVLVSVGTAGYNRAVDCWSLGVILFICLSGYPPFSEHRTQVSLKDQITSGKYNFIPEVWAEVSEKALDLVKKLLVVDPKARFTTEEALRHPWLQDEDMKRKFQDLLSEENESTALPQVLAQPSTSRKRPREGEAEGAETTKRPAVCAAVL
# In short: as §1
# PAK4 = biological target: T14, PAK4 (Homo sapiens, UniProt O96013)
# T14 construct: purchased Millipore, Inc. (KinaseProfiler service)
# In short: as §1
# DMPK = biological target: T15, DMPK (Homo sapiens, UniProt Q09013)
# T15 construct: purchased Millipore, Inc. (KinaseProfiler service)
# In short: as §1
# CDK5/p25 = biological target: T16, CDK5/p25 (Homo sapiens, UniProt Q00535)
# T16 construct: purchased Millipore, Inc. (KinaseProfiler service)
# In short: as §1
# PhKgamma2 = biological target: T17, PhKgamma2 (Homo sapiens, UniProt P15735)
# T17 construct: purchased Millipore, Inc. (KinaseProfiler service)
# In short: as §1
# JAK3 = biological target: T18, JAK3 (Homo sapiens, UniProt P52333)
# T18 construct: purchased Millipore, Inc. (KinaseProfiler service)
# In short: as §1
# TSSK1 = biological target: T19, TSSK1 (Homo sapiens, UniProt Q9BXA7)
# T19 construct: purchased Millipore, Inc. (KinaseProfiler service)
# T19 sequence (Q9BXA7 whole entry): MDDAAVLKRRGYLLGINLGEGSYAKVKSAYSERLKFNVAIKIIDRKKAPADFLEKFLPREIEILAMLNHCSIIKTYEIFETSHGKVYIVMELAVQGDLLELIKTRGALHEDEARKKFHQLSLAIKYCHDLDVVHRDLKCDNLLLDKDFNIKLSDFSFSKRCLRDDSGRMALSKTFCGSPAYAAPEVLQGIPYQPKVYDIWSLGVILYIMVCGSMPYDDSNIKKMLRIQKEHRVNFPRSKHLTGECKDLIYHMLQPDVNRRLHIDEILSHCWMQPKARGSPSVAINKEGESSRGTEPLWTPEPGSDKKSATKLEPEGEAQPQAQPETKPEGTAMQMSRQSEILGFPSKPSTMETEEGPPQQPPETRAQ
# In short: as §1
# FGFR2 = biological target: T20, FGFR2 (Homo sapiens, UniProt P21802)
# T20 construct: purchased Millipore, Inc. (KinaseProfiler service)
# T20 sequence (P21802 22-821): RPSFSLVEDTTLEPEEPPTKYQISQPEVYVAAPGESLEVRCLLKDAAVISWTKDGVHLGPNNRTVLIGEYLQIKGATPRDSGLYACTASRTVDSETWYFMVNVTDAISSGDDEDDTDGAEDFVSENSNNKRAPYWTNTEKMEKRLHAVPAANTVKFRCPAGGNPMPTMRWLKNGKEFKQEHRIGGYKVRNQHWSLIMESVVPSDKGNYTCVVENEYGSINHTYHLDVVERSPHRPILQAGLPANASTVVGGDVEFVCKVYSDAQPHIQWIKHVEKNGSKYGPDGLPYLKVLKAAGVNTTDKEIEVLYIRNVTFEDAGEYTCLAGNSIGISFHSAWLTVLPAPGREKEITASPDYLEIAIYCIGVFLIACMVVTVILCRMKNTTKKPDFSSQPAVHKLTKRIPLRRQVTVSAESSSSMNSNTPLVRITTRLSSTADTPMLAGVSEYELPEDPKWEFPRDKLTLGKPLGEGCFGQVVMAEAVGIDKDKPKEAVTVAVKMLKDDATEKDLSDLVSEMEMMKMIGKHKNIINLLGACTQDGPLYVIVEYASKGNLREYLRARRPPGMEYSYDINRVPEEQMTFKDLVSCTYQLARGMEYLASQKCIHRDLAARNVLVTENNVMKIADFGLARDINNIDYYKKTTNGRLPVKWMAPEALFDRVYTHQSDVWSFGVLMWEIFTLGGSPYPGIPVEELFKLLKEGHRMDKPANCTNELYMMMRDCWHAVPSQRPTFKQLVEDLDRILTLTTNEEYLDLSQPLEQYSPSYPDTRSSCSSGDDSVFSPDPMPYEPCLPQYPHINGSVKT
# In short: as §1
# TNK2 = biological target: T21, TNK2 (Homo sapiens, UniProt Q07912)
# T21 construct: purchased Millipore, Inc. (KinaseProfiler service)
# In short: as §1
# MKK4_m = biological target: T22, MKK4_m (Mus musculus, UniProt P47809)
# T22 construct: purchased Millipore, Inc. (KinaseProfiler service)
# In short: as §1
# PKCzeta = biological target: T23, PKCzeta (Homo sapiens, UniProt Q05513)
# T23 construct: purchased Millipore, Inc. (KinaseProfiler service)
# In short: as §1
# Rsk3 = biological target: T24, Rsk3 (Homo sapiens, UniProt Q15349)
# T24 construct: purchased Millipore, Inc. (KinaseProfiler service)
# In short: as §1
# Flt4 = biological target: T25, Flt4 (Homo sapiens, UniProt P35916)
# T25 construct: purchased Millipore, Inc. (KinaseProfiler service)
# T25 sequence (P35916 25-1363): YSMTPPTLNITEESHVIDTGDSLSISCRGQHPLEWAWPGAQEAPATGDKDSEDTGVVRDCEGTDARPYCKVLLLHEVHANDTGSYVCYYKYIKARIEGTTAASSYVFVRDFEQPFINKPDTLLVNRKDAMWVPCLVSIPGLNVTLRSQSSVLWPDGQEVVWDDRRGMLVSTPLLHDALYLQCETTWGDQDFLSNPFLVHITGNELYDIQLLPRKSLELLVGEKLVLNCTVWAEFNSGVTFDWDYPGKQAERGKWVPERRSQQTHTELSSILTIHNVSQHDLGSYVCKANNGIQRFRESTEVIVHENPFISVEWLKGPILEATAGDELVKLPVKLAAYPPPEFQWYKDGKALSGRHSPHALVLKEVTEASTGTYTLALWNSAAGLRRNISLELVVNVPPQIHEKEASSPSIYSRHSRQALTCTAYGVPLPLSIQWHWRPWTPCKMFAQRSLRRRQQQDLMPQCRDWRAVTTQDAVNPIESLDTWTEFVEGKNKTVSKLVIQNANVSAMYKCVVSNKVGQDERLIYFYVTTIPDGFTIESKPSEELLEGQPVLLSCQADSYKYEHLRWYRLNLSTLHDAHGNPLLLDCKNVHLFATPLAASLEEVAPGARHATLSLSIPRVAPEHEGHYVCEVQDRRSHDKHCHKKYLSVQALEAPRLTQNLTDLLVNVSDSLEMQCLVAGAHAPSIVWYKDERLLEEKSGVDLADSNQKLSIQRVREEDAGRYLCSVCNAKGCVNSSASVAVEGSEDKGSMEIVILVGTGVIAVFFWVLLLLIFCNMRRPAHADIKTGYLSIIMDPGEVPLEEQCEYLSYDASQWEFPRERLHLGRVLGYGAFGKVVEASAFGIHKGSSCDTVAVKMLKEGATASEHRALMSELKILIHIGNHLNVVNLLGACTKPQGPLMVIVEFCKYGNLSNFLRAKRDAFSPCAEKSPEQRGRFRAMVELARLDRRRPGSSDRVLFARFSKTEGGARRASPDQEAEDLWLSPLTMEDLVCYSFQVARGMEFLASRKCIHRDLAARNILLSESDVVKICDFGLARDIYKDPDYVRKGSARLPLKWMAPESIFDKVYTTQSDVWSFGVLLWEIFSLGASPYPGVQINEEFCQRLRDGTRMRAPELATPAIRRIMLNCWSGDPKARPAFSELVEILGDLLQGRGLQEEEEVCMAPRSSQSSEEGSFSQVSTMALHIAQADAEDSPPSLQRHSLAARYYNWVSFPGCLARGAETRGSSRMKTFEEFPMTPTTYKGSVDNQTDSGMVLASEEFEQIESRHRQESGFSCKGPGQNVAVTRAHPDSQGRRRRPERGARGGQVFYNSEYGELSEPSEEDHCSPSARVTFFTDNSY
# In short: as §1
# MYLK = biological target: T26, MYLK (Homo sapiens, UniProt Q15746)
# T26 construct: purchased Millipore, Inc. (KinaseProfiler service)
# In short: as §1
# Axl = biological target: T27, Axl (Homo sapiens, UniProt P30530)
# T27 construct: purchased Millipore (KinaseProfiler service)
# T27 sequence (P30530 26-894): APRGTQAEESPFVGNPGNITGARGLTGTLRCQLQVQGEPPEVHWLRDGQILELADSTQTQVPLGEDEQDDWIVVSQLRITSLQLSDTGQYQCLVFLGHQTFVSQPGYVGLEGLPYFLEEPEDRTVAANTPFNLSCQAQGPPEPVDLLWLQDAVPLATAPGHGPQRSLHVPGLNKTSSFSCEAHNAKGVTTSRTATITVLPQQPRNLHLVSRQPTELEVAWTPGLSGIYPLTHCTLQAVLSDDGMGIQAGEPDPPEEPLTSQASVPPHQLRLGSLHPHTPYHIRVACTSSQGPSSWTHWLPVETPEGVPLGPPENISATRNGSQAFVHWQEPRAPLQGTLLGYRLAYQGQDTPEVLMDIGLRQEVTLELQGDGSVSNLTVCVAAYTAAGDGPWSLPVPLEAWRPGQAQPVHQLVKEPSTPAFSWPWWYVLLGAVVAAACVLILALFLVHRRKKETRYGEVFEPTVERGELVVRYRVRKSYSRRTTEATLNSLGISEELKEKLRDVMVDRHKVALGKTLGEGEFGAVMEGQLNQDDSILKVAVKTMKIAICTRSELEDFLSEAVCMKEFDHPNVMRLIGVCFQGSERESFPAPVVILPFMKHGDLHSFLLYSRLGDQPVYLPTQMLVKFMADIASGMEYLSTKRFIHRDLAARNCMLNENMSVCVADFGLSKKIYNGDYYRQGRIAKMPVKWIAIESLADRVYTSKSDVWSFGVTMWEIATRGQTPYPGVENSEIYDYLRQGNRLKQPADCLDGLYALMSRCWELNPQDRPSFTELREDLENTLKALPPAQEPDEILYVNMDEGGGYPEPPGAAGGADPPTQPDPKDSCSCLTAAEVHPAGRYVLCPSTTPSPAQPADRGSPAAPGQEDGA
# In short: as §1
# Pim-2 = biological target: T28, Pim-2 (Homo sapiens, UniProt Q9P1W9)
# T28 construct: purchased Millipore, Inc. (KinaseProfiler service)
# In short: as §1
# BrSK1 = biological target: T29, BrSK1 (Homo sapiens, UniProt Q8TDC3)
# T29 construct: purchased Millipore (KinaseProfiler service)
# In short: as §1
# PTK5 = biological target: T30, PTK5 (Homo sapiens, UniProt P42685)
# T30 construct: purchased Millipore, Inc. (KinaseProfiler service)
# In short: as §1
# MST3 = biological target: T31, MST3 (Homo sapiens, UniProt Q9Y6E0)
# T31 construct: purchased Millipore, Inc. (KinaseProfiler service)
# In short: as §1
# HIPK3 = biological target: T32, HIPK3 (Homo sapiens, UniProt Q9H422)
# T32 construct: purchased Millipore, Inc. (KinaseProfiler service)
# In short: as §1
# Yes = biological target: T33, Yes (Homo sapiens, UniProt P07947)
# T33 construct: purchased Millipore, Inc. (KinaseProfiler service)
# In short: as §1
compound,measurement,setting,value
"Cc1c(-c2cnn(C)c2)nn(-c2ccccc2)c1NC(=O)Nc1sc(C(F)(F)F)nc1-c1ccccc1 [Example 2, 1-(1′,4-dimethyl-1-phenyl-1H,1′H-[3,4′-bipyrazol]-5-yl)-3-(4-phenyl-2-(trifluoromethyl)thiazol-5-yl)urea]",Avg POC,TrkA,−1 POC
same,Avg POC,TrkB,3 POC
same,Avg POC,CDK2/cyclinA,122 POC
same,Avg POC,CLK3,110.5 POC
same,Avg POC,Rse,108 POC
same,Avg POC,EphA3,120 POC
same,Avg POC,GRK7,112 POC
same,Avg POC,ERK1,96.5 POC
same,Avg POC,ALK,108 POC
same,Avg POC,MKNK2,95 POC
same,Avg POC,IGF-1R Activated,97.5 POC
same,Avg POC,PAK6,135 POC
same,Avg POC,CSK,136 POC
same,Avg POC,CHK2,133 POC
same,Avg POC,PAK4,103.5 POC
same,Avg POC,DMPK,107.5 POC
same,Avg POC,CDK5/p25,104.5 POC
same,Avg POC,PhKgamma2,108 POC
same,Avg POC,JAK3,113 POC
same,Avg POC,TSSK1,92 POC
same,Avg POC,FGFR2,116.5 POC
same,Avg POC,TNK2,142.5 POC
same,Avg POC,MKK4_m,73.5 POC
same,Avg POC,PKCzeta,108 POC
same,Avg POC,Rsk3,99 POC
same,Avg POC,Flt4,107 POC
same,Avg POC,MYLK,99 POC
same,Avg POC,Axl,122.5 POC
same,Avg POC,Pim-2,142.5 POC
same,Avg POC,BrSK1,132.5 POC
same,Avg POC,PTK5,104.5 POC
same,Avg POC,MST3,157.5 POC
same,Avg POC,HIPK3,105.5 POC
same,Avg POC,Yes,128.5 POC
